Where two headings read alike, the source gives them in different places.
Assays:
[1] = system: HCV replicon D168V variant in Huh7 cells; assay: microbe, parasite or virus in culture; assay type: cell-based, Hepatitis C virus; conditions: for EC50: Hepatitis C virus; for Replicon EC50 (Fold change) D168V: Table 4, relative to WT replicon
Description: (§1) Mutations (R155K, A516T, D168A and D168V) were constructed by site-directed mutagenesis using a Con1 (genotype 1b) luciferase reporter replicon containing the H77 (genotype 1a) NS3 sequence.
Replicon RNA of each protease variant was introduced into Huh7 cells by electroporation. Replication was then assessed in the presence of increasing concentrations of protease inhibitors by measuring luciferase activity (relative light units) 96 h after electroporation. […]

[2] = system: wild-type HCV replicon in Huh7 cells; assay: Cell-based drug susceptibility (replicon) assay, wild-type; conditions: Hepatitis C virus, read-out: Replicon EC50 (nM) WT
Description: as §1
(§2) Replicon RNA of each protease variant was introduced into Huh7 cells by electroporation. Replication was then assessed in the presence of increasing concentrations of protease inhibitors by measuring luciferase activity (relative light units) 96 h after electroporation.
(§3) Mutations (R155K, D168A and A156T) were constructed by site-directed mutagenesis using a Con1 (genotype 1b) luciferase reporter replicon containing the H77 (genotype 1a) NS3 sequence.^6 Replicon RNA of each protease variant was introduced into Huh7 cells by electroporation. Replication was then assessed in the presence of increasing concentrations of protease inhibitors by measuring luciferase activity (relative light units) 96 h after electroporation.

[3] = system: HCV replicon R155K variant in Huh7 cells; assay: microbe, parasite or virus in culture; assay type: cell-based, Hepatitis C virus; conditions: for EC50: Hepatitis C virus; for Replicon EC50 (Fold change) R155K: Table 4, relative to WT replicon
Description: as §1, §2, §3

[4] = system: HCV replicon A156T variant in Huh7 cells; assay: microbe, parasite or virus in culture; assay type: cell-based, Hepatitis C virus; conditions: for Replicon EC50 (Fold change) A156T: Table 4, relative to WT replicon
Description: as §1, §2, §3

[5] = system: HCV replicon D168A variant in Huh7 cells; assay: microbe, parasite or virus in culture; assay type: cell-based, Hepatitis C virus; conditions: for EC50: Hepatitis C virus; for Replicon EC50 (Fold change) D168A: Table 4, relative to WT replicon
Description: as §1, §2, §3

[6] = target: T1, GT1a D168A NS3/4A protease (UniProt P27958, C1185S/D1194A, species not given); assay type: biochemical, Hepatitis C virus; conditions: read-out: Ki (nM) GT1a D168A NS3/4A Protease
T1 construct: Ki (nM) GT1a D168A NS3/4A Protease
Description: (§4) For each assay, 2 nM of NS3/4A protease (GT1, D168A and GT3) was pre-incubated at room temperature for 1 h with increasing concentration of inhibitors in assay buffer [50 mM Tris, 5% glycerol, 10 mM DTT, 0.6 mM LDAO, and 4% dimethyl sulfoxide]. Inhibition assays were performed in nonbinding surface 96-well black half-area plates (Corning) in a reaction volume of 60 μt. […] Three independent data sets were collected for each inhibitor with each protease construct.
as §4, with “(GT1a” for “(GT1, D168A”, “D168A)” for “GT3)”, “(50” for “[50”, “sulfoxide, pH 7.5).” for “sulfoxide].”, “non-binding” for “nonbinding”, “μL.” for “μt.”
(§5) For each assay, 2 nM of NS3/4A protease (GT1a, R155K and D168A) was pre-incubated at room temperature for 1 h with increasing concentration of inhibitors in assay buffer (50 mM Tris, 5% glycerol, 10 mM DTT, 0.6 mM LDAO, and 4% dimethyl sulfoxide, pH 7.5). Inhibition assays were performed in non-binding surface 96-well black half-area plates (Corning) in a reaction volume of 60 μL. […] Three independent data sets were collected for each inhibitor with each protease construct. […] Gibbs free energy of binding was calculated using the following equation: ΔG=RTlnKi

[7] = target: GT1a D168A NS3/4A protease; assay type: biochemical, Hepatitis C virus; conditions: Table 3; Ki D168A relative to GT1a WT
Description: as §4
(§6) For each assay, 2 nM of NS3/4A protease (GT1a and D168A) was pre-incubated at room temperature for 1 h with increasing concentration of inhibitors in assay buffer (50 mM Tris, 5% glycerol, 10 mM DTT, 0.6 mM LDAO, and 4% dimethyl sulfoxide, pH 7.5). Inhibition assays were performed in non-binding surface 96-well black half-area plates (Corning) in a reaction volume of 60 μL. […] Three independent data sets were collected for each inhibitor with each protease construct.
as §5

[8] = target: T2, wild-type GT1a NS3/4A protease (UniProt P27958, C1185S, species not given); assay type: biochemical, Hepatitis C virus; conditions: read-out: Ki (nM) GT1a WT NS3/4A Protease
T2 construct: Ki (nM) GT1a WT NS3/4A Protease
Description: as §4, §6, §5

[9] = Huh-7, read-out: Replicon EC50 (nM) D168V, Table 4
[10] = Huh-7, read-out: Replicon EC50 (nM) R155K, Table 4
[11] = Huh-7, read-out: Replicon EC50 (nM) D168A, Table 4
[12] = Huh-7, 96 h, read-out: Replicon EC50 (nM) D168V, Table 2, Huh7 cells, luciferase 96 h
[13] = Huh-7, 96 h, Table 2, Huh7 cells, luciferase 96 h
[14] = Huh-7, 96 h, read-out: Replicon EC50 (nM) R155K, Table 2, Huh7 cells, luciferase 96 h
[15] = Hepatitis C virus, Huh-7, 96 h, read-out: Replicon EC50 (nM) A156T, Table 2, Huh7 cells, luciferase 96 h
[16] = Hepatitis C virus, Huh-7, read-out: Replicon EC50 (nM) A156T, Table 4
[17] = Huh-7, 96 h, read-out: Replicon EC50 (nM) D168A, Table 2, Huh7 cells, luciferase 96 h

Row | SMILES | EC50 [1, 9] | EC50 ([2]; Huh-7, Table 4) | EC50 [3, 10] | EC50 [5, 11] | EC50 [1, 12] | Replicon EC50 (Fold change) D168V [1] | EC50 [2, 13] | EC50 [3, 14] | Replicon EC50 (Fold change) R155K [3] | EC50 [4, 15] | EC50 [4, 16] | Replicon EC50 (Fold change) A156T [4] | EC50 [5, 17] | Replicon EC50 (Fold change) D168A [5] | Ki ([6]; Table 1) | Ki ([6]; Table 3) | Ki (Fold change) GT1a D168A NS3/4A Protease [7] | Ki ([8]; Table 1) | Ki ([8]; Table 3) | also measured
1 | C=C[C@@H]1C[C@]1(NC(=O)[C@@H]1C[C@@H]2CN1C(=O)[C@H](C(C)(C)C)NC(=O)O[C@@H]1C[C@H]1CCCCCc1nc3ccc(OC)cc3nc1O2)C(=O)NS(=O)(=O)C1CC1 [Compound 1, grazoprevir, reference compound] | 5.41 nM | 0.14 nM | 1.89 nM | 9.69 nM | – | – | – | – | – | – | – | – | – | – | – | – | – | – | – | EC50 ([1]; Huh-7, read-out: Replicon EC50 (nM) D168V, Table 9): 5.3 nM; EC50 ([2]; Huh-7, Table 9): 0.12 nM; EC50 ([3]; Huh-7, read-out: Replicon EC50 (nM) R155K, Table 9): 1.9 nM; EC50 ([4]; Hepatitis C virus, Huh-7, read-out: Replicon EC50 (nM) A156T, Table 9): 200 nM; EC50 ([4]; read-out: Replicon EC50 (nM) A156T, Table 2, Huh7 cells, luciferase 96 h): 238 nM; EC50 ([5]; Huh-7, read-out: Replicon EC50 (nM) D168A, Table 9): 11 nM
2 | COc1ccc2nc(C(C)C)c(O[C@@H]3C[C@H]4C(=O)N[C@]5(C(=O)NS(=O)(=O)C6CC6)C[C@H]5/C=C\CCCCC[C@H](NC(=O)OC(C)(C)C)C(=O)N4C3)nc2c1 [Compound 18e] | 23.7 nM | 1.43 nM | 5.02 nM | 15.3 nM | 23.7 nM | (17) fold | 1.43 nM | 5.02 nM | (4) fold | 25.7 nM | 25.7 nM | (18) fold | 15.3 nM | (11) fold | 239 nM | 239 ± 20 nM | (56) fold | 4.27 nM | 4.27 nM | –
3 | COc1ccc2nc(C(C)C)c(O[C@@H]3C[C@H]4C(=O)N[C@]5(C(=O)NS(=O)(=O)C6CC6)C[C@H]5/C=C\CCCCC[C@H](NC(=O)OC5CCCC5)C(=O)N4C3)nc2c1 [Compound 22e, Cyclopentyl ((2R,6S,13aS,14aR,16aS,Z)-14a-((cyclopropylsulfonyl)carbamoyl)-2-((3-isopropyl-7-methoxyquinoxalin-2-yl)oxy)-5,16-dioxo-1,2,3,5,6,7,8,9,10,11,13a,14,14a,15,16,16a-hexadecahydrocyclopropa[e]pyrrolo[1,2-a][1,4]diazacyclopentadecin-6-yl)carbamate] | 30.1 nM | 0.48 nM | 7.63 nM | 7.96 nM | 30.1 nM | (63) fold | 0.48 nM | 7.63 nM | (16) fold | 32.1 nM | 32.1 nM | (67) fold | 7.96 nM | (17) fold | 161 nM | 161 ± 11 nM | (112) fold | 1.44 nM | 1.44 nM | –
4 | O=C(N[C@H]1CCCCC/C=C\[C@@H]2C[C@@]2(C(=O)NS(=O)(=O)C2CC2)NC(=O)[C@@H]2C[C@@H](Oc3nc4ccccc4nc3-c3cccs3)CN2C1=O)OC1CCCC1 [Compound 22f, Cyclopentyl ((2R,6S,13aS,14aR,16aS,Z)-14a-((cyclopropylsulfonyl)carbamoyl)-5,16-dioxo-2-((3-(thiophen-2-yl)quinoxalin-2-yl)oxy)-1,2,3,5,6,7,8,9,10,11,13a,14,14a,15,16,16a-hexadecahydrocyclopropa[e]pyrrolo[1,2-a][1,4]diazacyclopentadecin-6-yl)carbamate] | 70 nM | 0.4 nM | 19.2 nM | 42.2 nM | 70 nM | (175) fold | 0.4 nM | 19.2 nM | (48) fold | 183 nM | 183 nM | (458) fold | 42.2 nM | (106) fold | 900 nM | 900 ± 81 nM | (566) fold | 1.59 nM | 1.59 nM | –
5 | CCc1nc2ccccc2nc1O[C@@H]1C[C@H]2C(=O)N[C@]3(C(=O)NS(=O)(=O)C4CC4)C[C@H]3/C=C\CCCCC[C@H](NC(=O)OC3CCCC3)C(=O)N2C1 [Compound 22g, Cyclopentyl ((2R,6S,13aS,14aR,16aS,Z)-14a-((cyclopropylsulfonyl)carbamoyl)-2-((3-ethylquinoxalin-2-yl)oxy)-5,16-dioxo-1,2,3,5,6,7,8,9,10,11,13a,14,14a,15,16,16a-hexadecahydrocyclopropa[e]pyrrolo[1,2-a][1,4]diazacyclopentadecin-6-yl)carbamate] | 19.3 nM | 0.24 nM | 4.28 nM | 7.5 nM | 19.3 nM | (80) fold | 0.24 nM | 4.28 nM | (18) fold | 24.6 nM | 24.6 nM | (103) fold | 7.5 nM | (31) fold | 107 nM | 107 ± 7 nM | (54) fold | 1.99 nM | 1.99 nM | –
6 | COc1ccc2nc(C(C)C)c(O[C@@H]3C[C@H]4C(=O)N[C@]5(C(=O)NS(=O)(=O)C6(C)CC6)C[C@H]5/C=C\CCCCC[C@H](NC(=O)OC5CCCC5)C(=O)N4C3)nc2c1 [Compound 23e, Cyclopentyl ((2R,6S,13aS,14aR,16aS,Z)-2-((3-isopropyl-7-methoxyquinoxalin-2-yl)oxy)-14a-(((1-methylcyclopropyl)sulfonyl)carbamoyl)-5,16-dioxo-1,2,3,5,6,7,8,9,10,11,13a,14,14a,15,16,16a-hexadecahydrocyclopropa[e]pyrrolo[1,2-a][1,4]diazacyclopentadecin-6-yl)carbamate] | 18.2 nM | 0.59 nM | 6.83 nM | 7.91 nM | 18.2 nM | (31) fold | 0.59 nM | 6.83 nM | (12) fold | 27.6 nM | 27.6 nM | (47) fold | 7.91 nM | (13) fold | 156 nM | 156 ± 17 nM | (116) fold | 1.34 nM | 1.34 nM | –
